Reference: patent publication US20230357233A1, “HETEROARYL COMPOUNDS, PREPARATION METHODS AND USES THEREOF” (INVENTISBIO CO., LTD., priority 2020, published 2023)

Experiments:
Ba/F3_KRAS^G12D cells = Ba/F3_KRAS^G12D cells (Homo sapiens, UniProt P01116, G12D, cells depend on it); experiment: Ba/F3 KRAS^G12D cell proliferation assay (cell-titer Glo); type: cell-based; conditions: cell growth inhibition, treated with the compounds for 3 days, read-out: BaF3_KRAS^G12D IC50
Method: Cells were seeded at a density of 5×10^3 per well into 96-well plate and incubated overnight. Serial diluted compounds were added to each well. Cells were treated with the compounds for 3 days, after which cell-titer Glo reagent (Promega #G7572) was used to assess cell proliferation. The luminescence signal was then collected on Tecan Spark plate reader. […] Cell growth inhibition of IC50 is calculated with the equation of Y=Bottom+(Top−Bottom)/(1+10^((LogIC50−X)*HillSlope))

[1] = target: recombinant human KRAS^G12D protein (Homo sapiens, UniProt P01116, G12D); experiment: Temperature-dependent Fluorescence (TdF) KRAS^G12D protein binding assay; conditions: 6 μM KRAS^G12D Protein, 10 μM compound, Sypro Orange; Kd calculated from fluorescent shift
recombinant human KRAS^G12D protein, sequence (P01116 1-188 isoform P01116-2 G12D): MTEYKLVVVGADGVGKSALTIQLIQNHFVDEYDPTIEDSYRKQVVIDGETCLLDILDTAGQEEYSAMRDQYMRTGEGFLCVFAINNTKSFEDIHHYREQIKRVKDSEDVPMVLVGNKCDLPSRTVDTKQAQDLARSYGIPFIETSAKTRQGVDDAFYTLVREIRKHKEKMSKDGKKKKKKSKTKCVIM
Method: The TdF assay was conducted in the 96-well-based real-time fluorescence plate reader (ABI 7500 or Roche LightCycler 480). Fluorescent dye Sypro Orange (Sigma) was used to monitor the protein folding-unfolding transition. Protein-compound binding was gauged by the shift in the unfolding transition temperature (ΔTm) acquired with and without compound. […] The sample plate was heated from 30° C. to 95° C. with a thermal ramping rate of […], taking a fluorescence reading every 0.4° C. using a CY3 channel matching the excitation and emission wavelengths of Sypro Orange (λ ex 470 nm; λ em 570 nm). Binding affinity (Kd value) was calculated based on the degree of fluorescent shift of the protein with and without compound.

Ba/F3_KRAS^G12D cells, sequence (P01116 whole entry G12D): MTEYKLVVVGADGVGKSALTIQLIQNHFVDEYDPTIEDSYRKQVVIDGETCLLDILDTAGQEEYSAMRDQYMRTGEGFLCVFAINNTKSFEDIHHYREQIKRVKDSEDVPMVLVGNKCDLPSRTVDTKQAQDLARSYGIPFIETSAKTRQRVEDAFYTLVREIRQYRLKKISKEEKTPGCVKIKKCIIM

Structure (SMILES) | GI50 (Ba/F3_KRAS^G12D cells) [nM] | Kd [1] [nM]
C[C@H]1CNCCN1c1nc(OCCN(C)C)c(-c2cccnc2C2CC2)c2nc(-c3ccccc3F)c(F)cc12 [Compound 1] | 500 to 5000 | > 5000
Clc1cc2c(N3CC4CCC(C3)N4)nc(OCC34CCCN3CCC4)nc2nc1-c1cccc2ccccc12 [Compound 2] | > 5000 | > 5000
Clc1cc2c(N3CCNCC3)nc(OCC34CCCN3CCC4)nc2nc1-c1cccc2ccccc12 [Compound 3] | > 5000 | > 5000
Cc1cc(-c2nc(OC(C)C)c3c(N4CC5CCC(C4)N5)nc(OC[C@@]45CCCN4C[C@H](F)C5)nc3c2F)c(C(F)(F)F)c(N)n1 [Compound 199] | < 500 | –
C#Cc1c(F)ccc2cc(N)cc(-c3nc(OC(C)C)c4c(N5CC6CCC(C5)N6)nc(OC[C@@]56CCCN5C[C@H](F)C6)nc4c3F)c12 [Compound 200] | < 500 | –
C#Cc1c(F)ccc2cc(N)cc(-c3nc(O)c4c(N5CC6CCC(C5)N6)nc(OC[C@@]56CCCN5C[C@H](F)C6)nc4c3F)c12 [Compound 201] | 500 to 5000 | –
C#Cc1c(F)ccc2c(F)c(N)cc(-c3nc(OC(C)C)c4c(N5CC6CCC(C5)N6)nc(OC[C@@]56CCCN5C[C@H](F)C6)nc4c3F)c12 [Compound 202] | < 500 | –
C#Cc1c(F)ccc2cc(O)cc(-c3nc(OC(C)C)c4c(N5CC6CCC(C5)N6C)nc(OC[C@@]56CCCN5C[C@H](F)C6)nc4c3F)c12 [Compound 203] | < 500 | –
C#Cc1c(F)ccc2cc(O)cc(-c3nc(OC(C)C)c4c(N5CC6CCC(C5)N6)nc(OC[C@@H]5C[C@H](F)CN5C)nc4c3F)c12 [Compound 204] | < 500 | –
C#Cc1c(F)ccc2cc(O)cc(-c3nc(C4CC4)c4c(N5CC6CCC(C5)N6)ncnc4c3F)c12 [Compound 205] | < 500 | –
C#Cc1c(F)ccc2cc(N)cc(-c3nc(OC(C)C)c4c(N5CC6CCC(C5)N6)nc(OC[C@@H]5C[C@@H](F)CN5C)nc4c3F)c12 [Compound 206] | < 500 | –
C#Cc1c(F)ccc2cc(N)cc(-c3nc(OC(C)C)c4c(N5CC6CCC(C5)N6)nc(OC[C@@H]5C[C@H](F)CN5C)nc4c3F)c12 [Compound 207] | < 500 | –
C#Cc1c(F)ccc2cc(N)cc(-c3nc(OC)c4c(N5CC6CCC(C5)N6)nc(OC[C@@H]5C[C@@H](F)CN5C)nc4c3F)c12 [Compound 208] | < 500 | –
C#Cc1c(F)ccc2cc(N)cc(-c3nc(OC)c4c(N5CC6CCC(C5)N6)nc(OC[C@@H]5C[C@H](F)CN5C)nc4c3F)c12 [Compound 209] | < 500 | –
C#Cc1c(F)ccc2cc(N)cc(-c3nc(O)c4c(N5CC6CCC(C5)N6)nc(OC[C@@H]5C[C@@H](F)CN5C)nc4c3F)c12 [Compound 210] | 500 to 5000 | –
C#Cc1c(F)ccc2cc(O)cc(-c3nc(O)c4c(N5CC6CCC(C5)N6)nc(C(F)F)nc4c3F)c12 [Compound 211] | 500 to 5000 | –
C#Cc1c(F)ccc2cc(O)cc(-c3nc(OCC)c4c(N5C[C@H]6CC[C@@H](C5)[C@@H]6O)nc(OC[C@@]56CCCN5C[C@H](F)C6)nc4c3F)c12 [Compound 212] | < 500 | –
CCOc1nc(-c2cc(N)cc(F)c2C(F)(F)F)c(F)c2nc(OC[C@@]34CCCN3C[C@H](F)C4)nc(N3CC4CCC(C3)N4)c12 [Compound 213] | < 500 | –
CCOc1nc(-c2cc(O)cc(F)c2C(F)(F)F)c(F)c2nc(OC[C@@]34CCCN3C[C@H](F)C4)nc(N3CC4CCC(C3)N4)c12 [Compound 214] | 500 to 5000 | –
CCc1c(F)ccc2cc(O)cc(-c3nc(OC)c4c(N5CC6CCC(C5)N6)nc(OC[C@]56CCCN5[C@@H](COC(=O)N(C)C)CC6)nc4c3F)c12 [Compound 215] | < 500 | –
C#Cc1c(F)ccc2cccc(-c3nc(OC)c4c(N5CC6CCC(C5)N6)nc(OC[C@]56CCCN5[C@@H](COC(=O)N(C)C)CC6)nc4c3F)c12 [Compound 216] | < 500 | –
CCc1c(F)ccc2cccc(-c3nc(OC)c4c(N5CC6CCC(C5)N6)nc(OC[C@]56CCCN5[C@@H](COC(=O)N(C)C)CC6)nc4c3F)c12 [Compound 217] | < 500 | –
C#Cc1c(F)ccc2cc(O)cc(-c3nc(OC(C)C)c4c(N5CC6CCC(C5)N6)nc(C)nc4c3F)c12 [Compound 218] | < 500 | –
C#Cc1c(F)ccc2cc(O)cc(-c3nc(OC(C)C)c4c(N5CCNCC(F)(F)C5)nc(OC[C@@]56CCCN5C[C@H](F)C6)nc4c3F)c12 [Compound 219] | < 500 | –
C#Cc1c(F)ccc2cc(O)cc(-c3nc(OC(C)C)c4c(N5CCNC(C(F)F)C5)nc(OC[C@@]56CCCN5C[C@H](F)C6)nc4c3F)c12 (some centres unmarked) [Compound 220] | < 500 | –

Structure (SMILES) | GI50 (Ba/F3_KRAS^G12D cells) [nM] | Kd [1] [nM]
C#Cc1c(F)ccc2cc(O)cc(-c3nc(OCC)c4c(N5CC6CCC(C5)N6)ncnc4c3F)c12 [Compound 221] | < 500 | –
C#Cc1c(F)ccc2cccc(-c3nc(OC(C)C)c4c(N5CC6CCC(C5)N6)nc(OC[C@]56CCCN5[C@@H](COC(=O)N(C)C)CC6)nc4c3F)c12 [Compound 222] | < 500 | –
CCc1c(F)ccc2cccc(-c3nc(OC(C)C)c4c(N5CC6CCC(C5)N6)nc(OC[C@]56CCCN5[C@@H](COC(=O)N(C)C)CC6)nc4c3F)c12 [Compound 223] | < 500 | –
C#Cc1c(F)ccc2cc(O)cc(-c3nc(OC)c4c(N5CC6CCC(C5)N6)nc(OCC5(CN6CCN(C(=O)CCCCCCCCCCCCCCC)CC6)CC5)nc4c3F)c12 [Compound 224] | < 500 | –
C#Cc1c(F)ccc2cc(O)cc(-c3nc(OC(C)C)c4c(N5CC6CCC(C5)N6)nc(OC[C@]56CCCN5[C@@H](COC(=O)N(C)C)CC6)nc4c3F)c12 [Compound 225] | < 500 | –
C#Cc1c(F)ccc2cc(O)cc(-c3nc(OC(C)C)c4c(N5CC6CCC(C5)N6)nc(OC[C@]56CCCN5[C@H](COC(=O)N(C)C)CC6)nc4c3F)c12 [Compound 226] | < 500 | –
C#Cc1c(F)ccc2cc(O)cc(-c3nc(OC(C)C)c4c(N5CC6CCC(C5)N6)nc(OC[C@]56CCCN5[C@@H](CO)CC6)nc4c3F)c12 [Compound 227] | < 500 | –
C#Cc1c(F)ccc2cc(O)cc(-c3nc(OC(C)C)c4c(N5CC6CCC(C5)N6)nc(OC[C@]56CCCN5[C@H](CO)CC6)nc4c3F)c12 [Compound 228] | < 500 | –
C#Cc1c(F)ccc2cc(O)cc(-c3nc(OC(C)C)c4c(N5CC6CCC(C5)N6)nc(OCC5(CN6CCOCC6)CC5)nc4c3F)c12 [Compound 229] | < 500 | –
C#Cc1c(F)ccc2cc(O)cc(-c3nc(OC(C)C)c4c(N5CC6CCC(C5)N6)nc(OCC5(CN6CCN(C)CC6)CC5)nc4c3F)c12 [Compound 230] | < 500 | –
C#Cc1c(F)ccc2cc(O)cc(-c3nc(OC(C)C)c4c(N5CC6CCC(C5)N6)nc(OCC5(CN6CCN(C(C)=O)CC6)CC5)nc4c3F)c12 [Compound 231] | < 500 | –
C#Cc1c(F)ccc2cc(O)cc(-c3nc(OC(C)C)c4c(N5CC6CCC(C5)N6)nc(OCC5(CN6CCN(C(=O)OC)CC6)CC5)nc4c3F)c12 [Compound 232] | < 500 | –
C#Cc1c(F)ccc2cc(O)cc(-c3nc(OCC)c4c(N5CC6CCC(C5)N6)nc(OC[C@]56CCCN5[C@@H](COC(=O)N(C)C)CC6)nc4c3F)c12 [Compound 233] | < 500 | –
C#Cc1c(F)ccc2cc(O)cc(-c3nc(OCC)c4c(N5CC6CCC(C5)N6)nc(OCC5(CN6CCOCC6)CC5)nc4c3F)c12 [Compound 234] | < 500 | –
C#Cc1c(F)ccc2cc(O)cc(-c3nc(OC(C)C)c4c(N5CC6CCC(C5)N6)nc(OC[C@@H]5C[C@@H](OC(=O)N(C)C)CN5C)nc4c3F)c12 [Compound 235] | < 500 | –
C#Cc1c(F)ccc2cccc(-c3nc(OCC)c4c(N5CC6CCC(C5)N6)nc(OC[C@]56CCCN5[C@@H](COC(=O)N(C)C)CC6)nc4c3F)c12 [Compound 236] | < 500 | –
CCOc1nc(-c2cccc3ccc(F)c(CC)c23)c(F)c2nc(OC[C@]34CCCN3[C@@H](COC(=O)N(C)C)CC4)nc(N3CC4CCC(C3)N4)c12 [Compound 237] | < 500 | –
C#Cc1c(F)ccc2cccc(-c3nc(OC(C)C)c4c(N5CC6CCC(C5)N6)nc(OC[C@]56CCCN5[C@@H](CO)CC6)nc4c3F)c12 [Compound 238] | < 500 | –
C#Cc1c(F)ccc2cc(O)cc(-c3nc(O)c4c(N5CC6CCC(C5)N6)nc(OC[C@]56CCCN5[C@@H](COC(=O)N(C)C)CC6)nc4c3F)c12 [Compound 239] | 500 to 5000 | –
C#Cc1c(F)ccc2cc(O)cc(-c3nc(OC(C)C)c4c(N5CCNC6(CC6)C5)nc(OC[C@@]56CCCN5C[C@H](F)C6)nc4c3F)c12 [Compound 241] | < 500 | –
C#Cc1c(F)ccc2cc(O)cc(-c3nc(OC(C)C)c4c(N5CCNC(CF)C5)nc(OC[C@@]56CCCN5C[C@H](F)C6)nc4c3F)c12 (some centres unmarked) [Compound 242] | < 500 | –
C#Cc1c(F)ccc2cc(O)cc(-c3nc(OC)c4c(N5CC6CCC(C5)N6)nc(OC[C@]56CCCN5[C@@H](COC(=O)N(C)CCCCCCCCCCCCCCCC)CC6)nc4c3F)c12 [Compound 243] | < 500 | –
C#Cc1c(F)ccc2cccc(-c3nc(OC(C)C)c4c(N5CC6CCC(C5)N6)nc(OC[C@]56CCCN5[C@@H](COC(=O)N5CCOCC5)CC6)nc4c3F)c12 [Compound 245] | < 500 | –
C#Cc1c(F)ccc2cccc(-c3nc(OC(C)C)c4c(N5CC6CCC(C5)N6)nc(OC[C@@H]5C[C@@H](OC(=O)N(C)CCCCCCCCCCCCCCCC)CN5C)nc4c3F)c12 [Compound 246] | 500 to 5000 | –
C#Cc1c(F)ccc2cccc(-c3nc(OC)c4c(N5CCNCC(F)(F)C5)nc(OC[C@]56CCCN5[C@@H](COC(=O)N(C)C)CC6)nc4c3F)c12 [Compound 247] | 500 to 5000 | –
